Holding throughout (assay): cell-based
Assay [1] addresses hNav1.7 (Homo sapiens, UniProt Q15858). Format: cell-based. The following applies: IonWorks Quattro, use-dependent block, hNav1.7; read-out: IWQ Use Nav1.7. For orientation: The patch-clamp technique gives a direct electrical read-out from membranes.
Assay [2] has as its target hNav1.5 (Homo sapiens, UniProt Q14524). To be noted: IonWorks Quattro, use-dependent block, hNav1.5; read-out: IWQ Use Nav1.5.
Assay [3] concerns the target hNav1.3 (Homo sapiens, UniProt Q9NY46). The following applies: IonWorks Quattro, use-dependent block, hNav1.3; read-out: IWQ Use Nav1.3.

Positions of bridges follow the written chain, without caps; N, C: chain ends. Residues, ends and D or L forms follow the SMILES beside them.

hNav1.3, sequence (Q9NY46 whole entry, looked up): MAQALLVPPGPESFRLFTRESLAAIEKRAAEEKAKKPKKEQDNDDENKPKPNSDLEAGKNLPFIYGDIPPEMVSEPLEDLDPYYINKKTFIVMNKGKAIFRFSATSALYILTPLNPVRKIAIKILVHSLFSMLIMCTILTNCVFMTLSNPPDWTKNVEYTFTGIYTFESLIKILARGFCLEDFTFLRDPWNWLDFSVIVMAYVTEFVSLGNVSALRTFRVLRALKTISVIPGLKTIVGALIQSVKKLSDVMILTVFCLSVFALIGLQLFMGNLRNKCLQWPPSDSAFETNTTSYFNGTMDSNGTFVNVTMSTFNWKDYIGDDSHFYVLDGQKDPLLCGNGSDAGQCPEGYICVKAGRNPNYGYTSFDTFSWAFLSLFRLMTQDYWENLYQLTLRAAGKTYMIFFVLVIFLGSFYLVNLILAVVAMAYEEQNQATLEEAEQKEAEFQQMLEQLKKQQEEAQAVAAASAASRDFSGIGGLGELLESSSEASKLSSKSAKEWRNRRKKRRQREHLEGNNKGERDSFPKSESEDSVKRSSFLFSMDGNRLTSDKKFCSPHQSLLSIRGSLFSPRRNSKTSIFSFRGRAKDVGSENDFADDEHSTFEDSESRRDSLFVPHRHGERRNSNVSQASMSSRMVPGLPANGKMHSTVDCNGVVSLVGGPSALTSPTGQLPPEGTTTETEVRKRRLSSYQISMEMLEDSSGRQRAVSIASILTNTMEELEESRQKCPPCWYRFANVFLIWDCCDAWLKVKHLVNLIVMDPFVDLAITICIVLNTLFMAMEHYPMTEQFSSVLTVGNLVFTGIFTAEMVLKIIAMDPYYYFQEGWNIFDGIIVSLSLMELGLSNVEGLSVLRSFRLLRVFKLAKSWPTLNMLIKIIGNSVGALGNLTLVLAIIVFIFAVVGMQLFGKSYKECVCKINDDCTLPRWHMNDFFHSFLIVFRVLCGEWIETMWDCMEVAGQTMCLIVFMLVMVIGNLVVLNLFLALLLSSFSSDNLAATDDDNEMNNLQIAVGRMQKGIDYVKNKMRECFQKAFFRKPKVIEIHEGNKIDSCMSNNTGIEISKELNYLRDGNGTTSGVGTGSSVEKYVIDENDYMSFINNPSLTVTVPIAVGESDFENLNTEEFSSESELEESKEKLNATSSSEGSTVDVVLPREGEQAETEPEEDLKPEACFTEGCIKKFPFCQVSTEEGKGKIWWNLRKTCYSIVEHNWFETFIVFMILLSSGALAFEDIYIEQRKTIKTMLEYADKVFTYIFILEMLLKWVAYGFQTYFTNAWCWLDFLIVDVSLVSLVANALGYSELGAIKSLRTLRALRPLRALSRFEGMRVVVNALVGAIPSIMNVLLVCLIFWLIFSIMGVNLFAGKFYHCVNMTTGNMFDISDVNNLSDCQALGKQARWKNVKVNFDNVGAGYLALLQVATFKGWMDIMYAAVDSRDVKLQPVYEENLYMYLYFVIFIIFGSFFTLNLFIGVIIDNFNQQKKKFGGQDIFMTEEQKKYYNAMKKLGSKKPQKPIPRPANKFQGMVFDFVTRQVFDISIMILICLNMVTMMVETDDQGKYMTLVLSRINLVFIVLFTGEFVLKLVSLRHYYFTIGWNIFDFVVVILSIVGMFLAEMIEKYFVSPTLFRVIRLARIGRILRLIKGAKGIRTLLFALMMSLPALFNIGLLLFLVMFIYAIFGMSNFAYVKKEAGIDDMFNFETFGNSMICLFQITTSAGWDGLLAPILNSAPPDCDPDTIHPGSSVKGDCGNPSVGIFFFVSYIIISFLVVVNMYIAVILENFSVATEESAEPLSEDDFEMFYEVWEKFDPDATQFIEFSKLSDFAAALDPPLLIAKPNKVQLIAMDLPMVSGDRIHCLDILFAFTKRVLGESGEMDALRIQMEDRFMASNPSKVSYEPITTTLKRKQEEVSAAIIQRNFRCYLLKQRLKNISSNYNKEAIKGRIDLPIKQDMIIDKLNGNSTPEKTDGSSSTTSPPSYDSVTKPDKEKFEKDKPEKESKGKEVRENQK
hNav1.7, sequence (Q15858 whole entry, looked up): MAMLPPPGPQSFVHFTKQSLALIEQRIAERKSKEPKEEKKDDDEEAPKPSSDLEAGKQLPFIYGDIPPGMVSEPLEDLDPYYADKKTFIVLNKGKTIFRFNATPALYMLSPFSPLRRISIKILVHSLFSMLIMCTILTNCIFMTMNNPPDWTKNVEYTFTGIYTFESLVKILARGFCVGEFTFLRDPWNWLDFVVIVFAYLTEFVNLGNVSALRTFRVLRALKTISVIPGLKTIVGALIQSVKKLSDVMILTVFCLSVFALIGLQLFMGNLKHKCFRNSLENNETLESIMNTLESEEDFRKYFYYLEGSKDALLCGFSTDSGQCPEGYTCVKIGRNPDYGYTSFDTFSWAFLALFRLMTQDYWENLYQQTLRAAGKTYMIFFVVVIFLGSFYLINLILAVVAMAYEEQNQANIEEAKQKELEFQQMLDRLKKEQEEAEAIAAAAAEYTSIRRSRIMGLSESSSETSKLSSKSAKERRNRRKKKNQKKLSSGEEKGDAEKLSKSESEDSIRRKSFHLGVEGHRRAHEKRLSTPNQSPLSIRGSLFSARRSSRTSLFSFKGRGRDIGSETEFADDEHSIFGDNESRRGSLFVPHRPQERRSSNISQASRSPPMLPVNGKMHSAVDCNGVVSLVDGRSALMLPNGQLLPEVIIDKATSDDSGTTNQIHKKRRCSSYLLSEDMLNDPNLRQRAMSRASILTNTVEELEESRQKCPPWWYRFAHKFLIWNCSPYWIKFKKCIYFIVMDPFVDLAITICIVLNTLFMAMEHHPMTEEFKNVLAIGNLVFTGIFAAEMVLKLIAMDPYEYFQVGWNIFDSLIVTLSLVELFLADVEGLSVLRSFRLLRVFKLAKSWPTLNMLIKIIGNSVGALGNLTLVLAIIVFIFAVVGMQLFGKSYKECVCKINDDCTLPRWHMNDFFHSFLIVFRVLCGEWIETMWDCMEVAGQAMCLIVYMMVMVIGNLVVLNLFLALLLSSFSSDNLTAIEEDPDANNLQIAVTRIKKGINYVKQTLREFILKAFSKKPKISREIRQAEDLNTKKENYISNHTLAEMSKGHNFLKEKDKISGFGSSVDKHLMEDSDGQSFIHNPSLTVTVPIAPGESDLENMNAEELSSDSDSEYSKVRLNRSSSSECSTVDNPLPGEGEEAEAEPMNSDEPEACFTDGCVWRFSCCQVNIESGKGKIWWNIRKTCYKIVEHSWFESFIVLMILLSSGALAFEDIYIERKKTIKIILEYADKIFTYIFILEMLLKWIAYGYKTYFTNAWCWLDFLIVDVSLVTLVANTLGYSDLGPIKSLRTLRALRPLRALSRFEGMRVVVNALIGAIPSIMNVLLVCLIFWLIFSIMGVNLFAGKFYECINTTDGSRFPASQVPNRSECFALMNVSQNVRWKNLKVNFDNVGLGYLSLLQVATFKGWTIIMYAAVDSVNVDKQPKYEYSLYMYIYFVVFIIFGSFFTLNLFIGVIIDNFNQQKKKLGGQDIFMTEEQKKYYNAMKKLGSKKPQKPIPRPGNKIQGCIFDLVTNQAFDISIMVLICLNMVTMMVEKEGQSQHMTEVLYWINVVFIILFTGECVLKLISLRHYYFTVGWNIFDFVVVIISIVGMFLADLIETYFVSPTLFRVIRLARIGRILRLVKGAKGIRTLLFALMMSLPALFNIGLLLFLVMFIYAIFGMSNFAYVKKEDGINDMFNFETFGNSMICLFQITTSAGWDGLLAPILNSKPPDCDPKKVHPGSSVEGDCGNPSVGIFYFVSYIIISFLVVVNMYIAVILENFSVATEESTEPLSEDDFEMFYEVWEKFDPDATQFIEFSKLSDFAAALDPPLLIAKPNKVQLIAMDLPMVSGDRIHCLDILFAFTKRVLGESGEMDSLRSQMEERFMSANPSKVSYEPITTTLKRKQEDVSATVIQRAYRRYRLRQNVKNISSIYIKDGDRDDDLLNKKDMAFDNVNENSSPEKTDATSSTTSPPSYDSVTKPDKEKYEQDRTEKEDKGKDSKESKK

For the compound `CC[C@H](C)[C@@H]1NC(=O)[C@@H]2CSSC[C@@H]3NC(=O)[C@H](C(C)C)NC(=O)[C@H](CC(C)C)NC(=O)[C@H](CC(N)=O)NC(=O)[C@@H]4CCCN4C(=O)[C@H](CCCNC(=N)N)NC(=O)[C@H](CSSC[C@H](NC(=O)[C@@H](N)CC(=O)O)C(=O)N[C@@H](CC(C)C)C(=O)NCC(=O)N[C@@H](C)C(=O)N[C@@H](CCSC)C(=O)N[C@@H](CCCNC(=N)N)C(=O)N[C@@H](CCCCN)C(=O)N2)NC(=O)[C@H](CSSC[C@@H](C(=O)N[C@@H](CCCCN)C(=O)N[C@@H](Cc2ccc(O)cc2)C(=O)N[C@H](C(=O)N[C@@H](Cc2ccccc2)C(N)=O)C(C)C)NC(=O)[C@H](C)NC(=O)[C@H](CCCCN)NC(=O)[C@H](Cc2c[nH]cn2)NC(=O)[C@H]([C@@H](C)O)NC(=O)[C@H](CCCNC(=N)N)NC(=O)[C@H](CO)NC3=O)NC(=O)[C@H](CCCCN)NC(=O)[C@H](CC(=O)O)NC(=O)[C@H](CC(N)=O)NC(=O)[C@H](CC(=O)O)NC(=O)[C@@H]2CCCN2C1=O` [compound 434] (H-DCLGAMRKCIPDNDKCCRPNLVCSRTHKACKYVF-NH2; disulfide 2-17, 9-23, 16-30), the IC50 in assay [1], in assay [2] and in assay [3] was more than 5 µM throughout.

As for `CC[C@H](C)[C@@H]1NC(=O)[C@@H]2CSSC[C@@H]3NC(=O)[C@H](C(C)C)NC(=O)[C@H](CC(C)C)NC(=O)[C@H](CC(N)=O)NC(=O)[C@@H]4CCCN4C(=O)[C@H](CCCNC(=N)N)NC(=O)[C@H](CSSC[C@H](NC(=O)[C@@H](N)CC(=O)O)C(=O)N[C@@H](CC(C)C)C(=O)NCC(=O)N[C@@H](C)C(=O)N[C@@H](CCSC)C(=O)N[C@@H](CCCNC(=N)N)C(=O)N[C@@H](CCCCN)C(=O)N2)NC(=O)[C@H](CSSC[C@@H](C(=O)N[C@@H](CCCCN)C(=O)N[C@@H](Cc2ccc(O)cc2)C(=O)N[C@H](C(=O)N[C@@H](Cc2ccccc2)C(N)=O)C(C)C)NC(=O)[C@H](Cc2c[nH]c4ccccc24)NC(=O)[C@H](CCC(=O)O)NC(=O)[C@H](Cc2c[nH]cn2)NC(=O)[C@H]([C@@H](C)O)NC(=O)[C@H](CCCNC(=N)N)NC(=O)[C@H](CO)NC3=O)NC(=O)[C@H](CCCCN)NC(=O)[C@H](CC(=O)O)NC(=O)[C@H](CC(N)=O)NC(=O)[C@H](CC(=O)O)NC(=O)[C@@H]2CCCN2C1=O` [compound 435], the IC50 in assay [1] was more than 5 µM; in assay [2], 3.66 µM; in assay [3], more than 5 µM.

Consider `CC[C@H](C)[C@@H]1NC(=O)[C@@H]2CSSC[C@@H]3NC(=O)[C@H](C(C)C)NC(=O)[C@H](CC(C)C)NC(=O)[C@H](CC(N)=O)NC(=O)[C@@H]4CCCN4C(=O)[C@H](CCCNC(=N)N)NC(=O)[C@H](CSSC[C@H](NC(=O)[C@@H](N)CC(=O)O)C(=O)N[C@@H](CC(C)C)C(=O)NCC(=O)N[C@@H](C)C(=O)N[C@@H](CCSC)C(=O)N[C@@H](CCC(=O)O)C(=O)N[C@@H](CCCCN)C(=O)N2)NC(=O)[C@H](CSSC[C@@H](C(=O)N[C@@H](CCCCN)C(=O)N[C@@H](Cc2ccc(O)cc2)C(=O)N[C@H](C(=O)N[C@@H](Cc2ccccc2)C(N)=O)C(C)C)NC(=O)[C@H](Cc2c[nH]c4ccccc24)NC(=O)[C@H](CCCCN)NC(=O)[C@H](Cc2c[nH]cn2)NC(=O)[C@H]([C@@H](C)O)NC(=O)[C@H](CCCNC(=N)N)NC(=O)[C@H](CO)NC3=O)NC(=O)[C@H](CCCCN)NC(=O)[C@H](CC(=O)O)NC(=O)[C@H](CC(N)=O)NC(=O)[C@H](CC(=O)O)NC(=O)[C@@H]2CCCN2C1=O` [compound 436] (H-DCLGAMEKCIPDNDKCCRPNLVCSRTHKWCKYVF-NH2; disulfide 2-17, 9-23, 16-30), for which the IC50 in assay [1], in assay [2] and in assay [3] was more than 5 µM throughout.

`CC[C@H](C)[C@@H]1NC(=O)[C@@H]2CSSC[C@@H]3NC(=O)[C@H](C(C)C)NC(=O)[C@H](CC(C)C)NC(=O)[C@H](CC(N)=O)NC(=O)[C@@H]4CCCN4C(=O)[C@H](CCCNC(=N)N)NC(=O)[C@H](CSSC[C@H](NC(=O)[C@@H](N)CC(=O)O)C(=O)N[C@@H](CC(C)C)C(=O)NCC(=O)N[C@@H](C)C(=O)N[C@@H](CCSC)C(=O)N[C@@H](CCCNC(=N)N)C(=O)N[C@@H](CCCCN)C(=O)N2)NC(=O)[C@H](CSSC[C@@H](C(=O)N[C@@H](CCCCN)C(=O)N[C@@H](Cc2ccc(O)cc2)C(=O)N[C@H](C(=O)N[C@@H](Cc2ccccc2)C(N)=O)C(C)C)NC(=O)[C@H](CCC(=O)O)NC(=O)[C@H](CCCCN)NC(=O)[C@H](Cc2c[nH]cn2)NC(=O)[C@H]([C@@H](C)O)NC(=O)[C@H](CCCNC(=N)N)NC(=O)[C@H](CO)NC3=O)NC(=O)[C@H](CCCCN)NC(=O)[C@H](CC(=O)O)NC(=O)[C@H](CC(N)=O)NC(=O)[C@H](CC(=O)O)NC(=O)[C@@H]2CCCN2C1=O` [compound 437] (H-DCLGAMRKCIPDNDKCCRPNLVCSRTHKECKYVF-NH2; disulfide 2-17, 9-23, 16-30): the figures for the IC50 in assay [1], in assay [2] and in assay [3] were 11.9 µM, 9.26 µM and 6.09 µM, respectively.

On to `CC[C@H](C)[C@@H]1NC(=O)[C@@H]2CSSC[C@@H]3NC(=O)[C@H](C(C)C)NC(=O)[C@H](CC(C)C)NC(=O)[C@H](CC(N)=O)NC(=O)[C@@H]4CCCN4C(=O)[C@H](CCCNC(=N)N)NC(=O)[C@H](CSSC[C@H](NC(=O)[C@@H](N)CC(=O)O)C(=O)N[C@@H](CC(C)C)C(=O)NCC(=O)N[C@@H](C)C(=O)N[C@@H](CCSC)C(=O)N[C@@H](CCCNC(=N)N)C(=O)N[C@@H](CCCCN)C(=O)N2)NC(=O)[C@H](CSSC[C@@H](C(=O)N[C@@H](CCCCN)C(=O)N[C@@H](Cc2ccc(O)cc2)C(=O)N[C@H](C(=O)N[C@@H](Cc2ccccc2)C(N)=O)C(C)C)NC(=O)[C@H](Cc2c[nH]c4ccccc24)NC(=O)[C@H](CCCCN)NC(=O)[C@H](Cc2c[nH]cn2)NC(=O)[C@H]([C@@H](C)O)NC(=O)[C@H](CCC(=O)O)NC(=O)[C@H](CO)NC3=O)NC(=O)[C@H](CCCCN)NC(=O)[C@H](CC(=O)O)NC(=O)[C@H](CC(N)=O)NC(=O)[C@H](CC(=O)O)NC(=O)[C@@H]2CCCN2C1=O` [compound 438], for which the IC50 in assay [1] amounted to 5.5 µM; in assay [2], 18.2 µM; in assay [3] it was 5.95 µM.

As to `CC[C@H](C)[C@@H]1NC(=O)[C@@H]2CSSC[C@@H]3NC(=O)[C@H](C(C)C)NC(=O)[C@H](CC(C)C)NC(=O)[C@H](CC(N)=O)NC(=O)[C@@H]4CCCN4C(=O)[C@H](CCCNC(=N)N)NC(=O)[C@H](CSSC[C@H](NC(=O)[C@@H](N)CC(=O)O)C(=O)N[C@@H](CC(C)C)C(=O)NCC(=O)N[C@@H](C)C(=O)N[C@@H](CCSC)C(=O)N[C@@H](CCCNC(=N)N)C(=O)N[C@@H](CCCCN)C(=O)N2)NC(=O)[C@H](CSSC[C@@H](C(=O)N[C@@H](CCCCN)C(=O)N[C@@H](Cc2ccc(O)cc2)C(=O)N[C@H](C(=O)N[C@@H](Cc2ccccc2)C(N)=O)C(C)C)NC(=O)[C@H](Cc2c[nH]c4ccccc24)NC(=O)[C@H](CCCCN)NC(=O)[C@H](Cc2c[nH]cn2)NC(=O)[C@H]([C@@H](C)O)NC(=O)[C@H](CCCNC(=N)N)NC(=O)[C@H](CO)NC3=O)NC(=O)[C@H](CCC(=O)O)NC(=O)[C@H](CC(=O)O)NC(=O)[C@H](CC(N)=O)NC(=O)[C@H](CC(=O)O)NC(=O)[C@@H]2CCCN2C1=O` [compound 439] (H-DCLGAMRKCIPDNDECCRPNLVCSRTHKWCKYVF-NH2; disulfide 2-17, 9-23, 16-30), the values for the IC50 in assay [1], in assay [2] and in assay [3] were 2.41 µM, 10.8 µM and 4.8 µM, respectively.
